Among the data in ChEMBL document CHEMBL3112482, “Nonclassical antifolates, part 5. Benzodiazepine analogs as a new class of DHFR inhibitors: synthesis, antitumor testing and molecular modeling study” (Eur J Med Chem, 2014) are IC50 values, retold here.

The experiment has as its target T1, Dihydrofolate reductase (Bos taurus, UniProt P00376).
T1 sequence (P00376 whole entry): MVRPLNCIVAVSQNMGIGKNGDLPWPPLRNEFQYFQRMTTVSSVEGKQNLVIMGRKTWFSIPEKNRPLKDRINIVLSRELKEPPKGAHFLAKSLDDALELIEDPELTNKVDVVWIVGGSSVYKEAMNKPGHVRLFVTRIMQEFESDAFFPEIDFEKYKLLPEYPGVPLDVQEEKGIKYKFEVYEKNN
In words: Inhibition of bovine liver DHFR measured for every 1 min of 10 mins.

As for `Cc1cc2c(cc1C)NC(c1ccc(Br)cc1)=C1CCC/C(=C\c3ccc(Br)cc3)C1=N2`, half-maximal inhibition (IC50) was put at 21 µM.
